In this experiment the target is T1, SIK3 (Homo sapiens, UniProt Q9Y2K2).
T1 construct: expressed in transfected cells; host or cells: HEK293
The experiment in a line: GAL4-Luc/TORC2 dual-luciferase reporter screening system for SIK3 activity in HEK293 cells. Format: cell-based. The following applies: HEK293 cells transfected with pM-TORC2 and pTarget-SIK3; test substance added 24 h later, treated for 6 hours; DMSO control. The protocol: Into HEK293 cells, a reporter vector GAL4-Luc (firefly luciferase: pTAL-5XGAL4 (150 ng)), an endogenous reporter vector (Renilla luciferase: pRL-Int (−) (30 ng)), a vector with or without the expression of TORC (pM-TORC2 or pM only (50 ng)) and a vector with or without the expression of SIK3 (pTarget-SIK3 or pTarget only (50 ng)) were introduced using Lipofectamine 2000. Twenty-four hours later, a test substance was added and the cells were further treated for 6 hours. The measurement of the reporter activity was performed using Dual-Luciferase assay kit made by Promega. As the test substance, staurosporine (STS) or a SIK2 inhibitor (Compound C) was used. As a control, DMSO alone was added.
In FIG. 7, the vertical axis represents the activity of TORC2, which is the activity of pM-TORC2 that was calculated by dividing the firefly luciferase activity by the Renilla luciferase activity and is expressed as a multiple of the activity of pM. The white bars and the black bars represent the activities of TORC2 with the absence and presence of SIK3, respectively. […] As is apparent from FIG. 7, the inhibiting activity of staurosporine (STS) on SIK3 was detected.
(A reporter such as luciferase makes a cellular process visible.)

T1 sequence (Q9Y2K2 whole entry): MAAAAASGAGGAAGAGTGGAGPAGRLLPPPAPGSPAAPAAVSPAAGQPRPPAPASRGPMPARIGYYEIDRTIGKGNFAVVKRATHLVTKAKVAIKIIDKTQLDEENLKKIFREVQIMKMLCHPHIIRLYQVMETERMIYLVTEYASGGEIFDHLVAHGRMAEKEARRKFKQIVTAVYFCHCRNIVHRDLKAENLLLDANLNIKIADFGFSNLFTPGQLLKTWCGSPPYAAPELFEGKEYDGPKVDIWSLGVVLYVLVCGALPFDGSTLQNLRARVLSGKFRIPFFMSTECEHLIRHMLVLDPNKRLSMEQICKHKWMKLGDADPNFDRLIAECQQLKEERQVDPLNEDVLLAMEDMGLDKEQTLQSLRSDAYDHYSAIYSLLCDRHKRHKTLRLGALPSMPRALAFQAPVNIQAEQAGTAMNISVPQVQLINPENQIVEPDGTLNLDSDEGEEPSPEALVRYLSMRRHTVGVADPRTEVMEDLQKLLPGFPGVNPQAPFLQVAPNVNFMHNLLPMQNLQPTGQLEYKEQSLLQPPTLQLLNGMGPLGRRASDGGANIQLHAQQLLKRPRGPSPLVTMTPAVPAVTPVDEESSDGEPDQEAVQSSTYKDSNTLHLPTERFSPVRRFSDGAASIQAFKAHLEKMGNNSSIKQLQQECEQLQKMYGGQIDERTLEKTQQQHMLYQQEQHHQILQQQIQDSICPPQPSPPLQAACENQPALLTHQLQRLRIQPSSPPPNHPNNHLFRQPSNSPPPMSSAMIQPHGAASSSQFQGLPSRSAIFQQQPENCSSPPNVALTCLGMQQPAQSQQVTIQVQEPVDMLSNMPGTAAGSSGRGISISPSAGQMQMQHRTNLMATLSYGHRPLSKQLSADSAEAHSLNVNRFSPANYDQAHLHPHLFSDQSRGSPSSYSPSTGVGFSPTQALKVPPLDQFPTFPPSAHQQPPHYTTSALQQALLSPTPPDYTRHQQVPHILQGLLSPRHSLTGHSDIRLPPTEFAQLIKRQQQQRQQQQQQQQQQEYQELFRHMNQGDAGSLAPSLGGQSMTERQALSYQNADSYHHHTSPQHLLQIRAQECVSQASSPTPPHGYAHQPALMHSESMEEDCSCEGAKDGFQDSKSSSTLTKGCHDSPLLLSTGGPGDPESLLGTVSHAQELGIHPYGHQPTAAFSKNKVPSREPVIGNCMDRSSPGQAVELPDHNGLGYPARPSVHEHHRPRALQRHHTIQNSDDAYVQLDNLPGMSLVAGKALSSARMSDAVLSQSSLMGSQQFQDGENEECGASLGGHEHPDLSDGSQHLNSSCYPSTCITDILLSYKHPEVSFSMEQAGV

In the case of `CN[C@@H]1C[C@H]2O[C@@](C)([C@@H]1OC)n1c3ccccc3c3c4c(c5c6ccccc6n2c5c31)C(=O)NC4` [staurosporine], the “inhibiting activity on SIK3 (activity of TORC2 with absence vs presence of SIK3)” value is given as “detected”.

The record behind these values is patent publication US9562272B2, “Screening method for therapeutic agent for chondropathy and modified chondrocyte for treatment of chondropathy” (KYOTO UNIVERSITY, priority 2011, dated 2017).
